Measurements: PubChem BioAssay AID1963826 (Molecular Pharmacology Branch, DTP, NCI, 2024)

System: 926638-142-R-J1-PDC complex spheroid viability
Experiment: Anticancer human tumor 926638-142-R-J1-PDC patient-derived endometrial carcinoma cell line growth inhibition [POLQ]
Settings: for IC50: curve of first compound; for viability, T/C: stronger effect = lower value; active = viability on the fitted dose curve at most 10% of control; inactive = the rest
Procedure: Multicellular complex tumor spheroid response to Polymerase (POL) inhibitors (novobiocin, ART-558, RP6685) in combination with a variety of drugs and investigational agents in selected tumor cell lines
The POL inhibitors (novobiocin, ART-558, and RP6685) were evaluated both individually and in combination with standard of care and investigational anticancer small molecules within a complex spheroid model of solid tumors. . Complex spheroids include a stromal component modeled by human endothelial cells (HUVEC) and fibroblasts modeled by human mesenchymal stem cells (MSCs). The concentration ranges selected for each drug and investigational agent were based upon clinically achievable concentrations if the clinical Cmax of the agent was known.
Compounds. The drugs and investigational agents: novobiocin (NSC847541), ART-558 (NSC835418), RP-6685 (NSC848927), peposertib (NSC802822), ceralasertib (NSC780249), elimusertib (NSC800525), camonsertib (NSC841442), AZD-1390 (NSC803789), olaparib (NSC753686), talazoparib (NSC767125), rucaparib (NSC756644), sotorasib (NSC818433), MRTX-1133 (NSC836407), SN-38 (NSC673596), topotecan (NSC609699), epotoside (NSC141540), doxorubicin (NSC123127), gemcitabine (NSC613327), 5-fluorouracil (NSC19893), paclitaxel (NSC125973), vemurafenib (NSC761431), MSA-2 (NSC828583), SN-011 (NSC837082), adavosertib (NSC754352), prexasertib (NSC758257), carboplatin (NSC241240) and oxaliplatin (NSC266046), were obtained from the National Cancer Institute (NCI) Developmental Therapeutics Program Chemical Repository (21). The FDA-approved anticancer drug set is available from the Developmental Therapeutics Program at https://dtp.cancer.gov/organization/dscb/obtaining/. […] The stock solutions were prepared in dimethyl sulfoxide (DMSO, Sigma-Aldrich, St. Louis, MO, cat. D2650), except for the platinum compounds which were prepared in saline (Quality Biological, Gaithersburg, MD, cat. 114-055-101), at 800-fold the tested concentration and stored at -70 degrees C prior to their use. All drugs and investigational agents were tested over a range starting from a high concentration at or near the clinical Cmax and decreasing in half-log increments. If the clinical Cmax for an agent had not been determined, the highest concentration tested was 10 microM, except for SN-38, which was tested at a high concentration of 1 microM.
Cell Culture. All cells were maintained in an incubator at 37 degrees C and 5% CO2 with 95% humidity. The PDC lines were cultured according to standard operating procedures established by the NCI PDMR (https://pdmr.cancer.gov). Table 3 of the manuscript, lists the cell lines along with the number of the three cell types plated to form the mct-spheroids and media for tumor cell growth. After thawing, all PDC lines, except 997537-175-T-J1-PDC and 415267-285-R-J2-PDC, were cultured in Matrigel-coated flasks prepared with a working solution of 1X Ham's F-12 nutrient mix, without supplementation (Thermo Fisher Scientific, cat. 11765054), 100 U/mL penicillin-streptomycin (Thermo Fisher Scientific, cat. 15140122), and 2.5% Matrigel (Corning Inc., Corning, NY, cat. 354248) for the first three passages. The two PDC lines 997537-175-T-J1-PDC and 415267-285-R-J2-PDC were cultured on uncoated flasks. The 857933-349-R-J2-PDC line was cultured in 6C/Colon 1B media containing advanced DMEM/F-12 (Thermo Fisher Scientific, cat. 12634028), 10 mM HEPES (Thermo Fisher Scientific, cat. 15630080), 1X GlutaMAX supplement (Thermo Fisher Scientific, cat. 35050061), 0.1 mg/mL primocin (InvivoGen, San Diego, CA, cat. ant-pm-2), 10% defined fetal bovine serum, heat inactivated (HyClone Laboratories Inc., Logan, UT, cat. SH30070.03HI), 50% L-WRN conditioned media (ATCC, cat. CRL-3276), 1.25 mM N-Acetyl-L-cysteine (Sigma-Aldrich, cat. A9165), 10 mM nicotinamide (Sigma-Aldrich, cat. N0636), 1X B-27 supplement (Thermo Fisher Scientific, cat. 17504044), 1X N-2 supplement (Thermo Fisher Scientific, cat. […]

[1] = second compound 0.0316 µM, first compound 0.0316 µM
[2] = second compound 0.0316 µM, first compound 0.1 µM
[3] = second compound 0.0316 µM, first compound 0.316 µM
[4] = second compound 0.0316 µM, first compound 1 µM
[5] = second compound 0.1 µM, first compound 0.0316 µM
[6] = second compound 0.1 µM, first compound 0.1 µM
[7] = second compound 0.1 µM, first compound 0.316 µM
[8] = second compound 0.1 µM, first compound 1 µM
[9] = second compound 0.316 µM, first compound 0.0316 µM
[10] = second compound 0.316 µM, first compound 0.1 µM
[11] = second compound 0.316 µM, first compound 0.316 µM
[12] = second compound 0.316 µM, first compound 1 µM
[13] = second compound 1 µM, first compound 0.0316 µM
[14] = second compound 1 µM, first compound 0.1 µM
[15] = second compound 1 µM, first compound 0.316 µM
[16] = second compound 1 µM, first compound 1 µM
[17] = second compound 3.16 µM, first compound 0.0316 µM
[18] = second compound 3.16 µM, first compound 0.1 µM
[19] = second compound 3.16 µM, first compound 0.316 µM
[20] = second compound 3.16 µM, first compound 1 µM
[21] = second compound 10 µM, first compound 0.0316 µM
[22] = second compound 10 µM, first compound 0.1 µM
[23] = second compound 10 µM, first compound 0.316 µM
[24] = second compound 10 µM, first compound 1 µM
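Also: spheroids exposed to drugs for one week before readout.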
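For viability, T/C in this document: percent viability relative to DMSO vehicle control wells set as 100%.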

C=CC(=O)N1CCN(c2nc(=O)n(-c3c(C)ccnc3C(C)C)c3nc(-c4c(O)cccc4F)c(F)cc23)C(C)C1 (centres undefined) + COC1C(OC(N)=O)C(O)C(Oc2ccc3c(O)c(NC(=O)c4ccc(O)c(CC=C(C)C)c4)c(=O)oc3c2C)OC1(C)C
8270 nM: IC50 (second compound 10 µM)
> 10000 nM: IC50 (second compound 0.0316 µM) | IC50 (second compound 0.1 µM) | IC50 (second compound 0.316 µM) | IC50 (second compound 1 µM) | IC50 (second compound 3.16 µM)
inactive: viability, T/C [1] 83.3% | viability, T/C [2] 95.4% | viability, T/C [3] 76.5% | viability, T/C [4] 86.8% | viability, T/C (second compound 0.0316 µM, first compound 3.16 µM) 64.2% | viability, T/C (second compound 0.0316 µM, first compound 10 µM) 52.5% | viability, T/C [5] 92.6% | viability, T/C [6] 91.6% | viability, T/C [7] 85.1% | viability, T/C [8] 80.8% | viability, T/C (second compound 0.1 µM, first compound 3.16 µM) 80.1% | viability, T/C (second compound 0.1 µM, first compound 10 µM) 65.6% | viability, T/C [9] 101% | viability, T/C [10] 96.2% | viability, T/C [11] 87.3% | viability, T/C [12] 85.8% | viability, T/C (second compound 0.316 µM, first compound 3.16 µM) 68.5% | viability, T/C (second compound 0.316 µM, first compound 10 µM) 53.6% | viability, T/C [13] 81.3% | viability, T/C [14] 87.9% | viability, T/C [15] 77.1% | viability, T/C [16] 80.9% | viability, T/C (second compound 1 µM, first compound 3.16 µM) 77.2% | viability, T/C (second compound 1 µM, first compound 10 µM) 59.4% | viability, T/C [17] 74.1% | viability, T/C [18] 87.7% | viability, T/C [19] 77.4% | viability, T/C [20] 75.7% | viability, T/C (second compound 3.16 µM, first compound 3.16 µM) 74.5% | viability, T/C (second compound 3.16 µM, first compound 10 µM) 56.5% | viability, T/C [21] 77.4% | viability, T/C [22] 96% | viability, T/C [23] 103% | viability, T/C [24] 73.6% | viability, T/C (second compound 10 µM, first compound 3.16 µM) 76.1% | viability, T/C (second compound 10 µM, first compound 10 µM) 45.1%

C=CCn1c(=O)c2cnc(Nc3ccc(N4CCN(C)CC4)cc3)nc2n1-c1cccc(C(C)(C)O)n1 + COC1C(OC(N)=O)C(O)C(Oc2ccc3c(O)c(NC(=O)c4ccc(O)c(CC=C(C)C)c4)c(=O)oc3c2C)OC1(C)C
470 nM: IC50 (second compound 10 µM)
494 nM: IC50 (second compound 0.0316 µM)
inactive: viability, T/C (second compound 0.0316 µM, first compound 0.00316 µM) 106% | viability, T/C (second compound 0.0316 µM, first compound 0.01 µM) 95.1% | viability, T/C [1] 93% | viability, T/C [2] 85.3% | viability, T/C [3] 54.1% | viability, T/C [4] 41.6% | viability, T/C (second compound 0.1 µM, first compound 0.00316 µM) 102% | viability, T/C (second compound 0.1 µM, first compound 0.01 µM) 105% | viability, T/C [5] 90.7% | viability, T/C [6] 80% | viability, T/C [7] 57.7% | viability, T/C [8] 32.2% | viability, T/C (second compound 0.316 µM, first compound 0.00316 µM) 88% | viability, T/C (second compound 0.316 µM, first compound 0.01 µM) 86.1% | viability, T/C [9] 78.3% | viability, T/C [10] 87.4% | viability, T/C [11] 52.8% | viability, T/C [12] 40.7% | viability, T/C (second compound 1 µM, first compound 0.00316 µM) 84.4% | viability, T/C (second compound 1 µM, first compound 0.01 µM) 98.5% | viability, T/C [13] 93.3% | viability, T/C [14] 85.2% | viability, T/C [15] 50.9% | viability, T/C [16] 37.1% | viability, T/C (second compound 3.16 µM, first compound 0.00316 µM) 93.6% | viability, T/C (second compound 3.16 µM, first compound 0.01 µM) 104% | viability, T/C [17] 89.1% | viability, T/C [18] 70.9% | viability, T/C [19] 47.7% | viability, T/C [20] 37.7% | viability, T/C (second compound 10 µM, first compound 0.00316 µM) 98% | viability, T/C (second compound 10 µM, first compound 0.01 µM) 109% | viability, T/C [21] 91.3% | viability, T/C [22] 80.5% | viability, T/C [23] 56.6% | viability, T/C [24] 37.6%
414 nM: IC50 (second compound 0.316 µM)
339 nM: IC50 (second compound 1 µM)
277 nM: IC50 (second compound 3.16 µM)
445 nM: IC50 (second compound 0.1 µM)
